Test results from paper PMC8315922, “In Vitro Identification and In Vivo Confirmation of Inhibitors for Sweet Potato Chlorotic Stunt Virus RNA Silencing Suppressor, a Viral RNase III” (Journal of Virology, 2021).
Read-outs that look alike come from different tables or passages of the source.

Columns and labels:
[1] = target: CSR3 (RNase III of SPCSV) (Sweet potato chlorotic stunt virus, UniProt Q8JJW8); assay: Kinetic-based FRET dose-response assay (IC50, DSS); assay type: biochemical; set-up: DSS / DSS Comm 1 / DSS FIMM1 / DSS FIMM 2: scale not given here; conditions: for DSS Comm 1 / DSS FIMM1 / DSS FIMM 2: drug sensitivity score; for DSS Comm 1: repeat Comm 1; for DSS FIMM1: repeat FIMM 1; for DSS FIMM 2: repeat FIMM 2
Description: A dose-response assay with six concentrations (1.25 nM to 50 μM) was carried out in three independent experiments, which included two tests with the 112 selected FIMM compounds (i.e., compounds prepared by the HTB-FIMM) and one test using the newly ordered commercial compounds (99 of the 112 compounds, i.e., compounds prepared by a second supplier). A dose-response curve was generated for each compound based on PI values as a function of the concentration.
The HTS assay was designed based on FRET using a 22-bp siRNA (forward sequence, […]; reverse sequence, […]) with a 2-nucleotide (nt) 3′ overhang labeled with the fluorescent dye 6-carboxyfluorescein (FAM) and a black hole quencher (BHQ1) on the sense strand (Metabion, Munich, Germany). Screening was initially carried out at one concentration (10 μM) in a 20-μl reaction buffer. […] All reaction mixtures contained 50 nM CSR3 and 375 nM labeled siRNA in 384-well black flat-bottom microplates (Corning, NY, USA) and were prepared using a BioTek MultiFlo FX dispenser with single-channel random access dispenser cassettes (BioTek, Winooski, VT, USA). The plates were read with a PHERAstar FS reader (BMG Labtech, Ortenberg, Germany).
(§1) For HTS, the activity of CSR3 was calculated by measuring the change in fluorescence as a function of the reaction time using MARS Data Analysis software (BMG Labtech). To evaluate the CSR3 inhibition efficiency of individual compounds, the PI of each compound was calculated using the slope values for the sample, positive control, and negative control according to the following equation: PI = 100 × [1 − (sample − positive)/(negative − positive)]%. IC50 and DSS values were calculated using concentration-specific PI values according to a previous study ([31]). Relative gene expression was calculated using the classical 2^−ΔΔ^CT method ([63]).

SPFMV [2] = assay: Virus accumulation (RT-qPCR of coat protein RNA) in coinfected sweetpotato plants grown in culture medium: SPFMV; assay type: in vivo, Sweet potato feathery mottle virus; conditions: for SPFMV accumulation reduced / viral titer SPFMV (log2 fold change relative to controls): plants in culture medium, 50 μM; for SPFMV_FC (fold change of viral accumulation): 50 μM in culture medium, 28 days, relative to DMSO control
Description: (§2) Since tests in culture medium consume smaller amounts of compounds and can be carried out under relatively controlled conditions, sweetpotato plants coinfected with SPCSV and SPFMV were grown in medium supplemented with one of the 30 inhibitor candidates at a concentration of 50 μM. Their effects on plant growth were monitored by imaging the plants once a week. […] In addition, virus accumulation was quantified by measuring the relative abundance of the transcripts encoding viral coat proteins using RT-qPCR ([32]). The effect of individual compounds on virus accumulation was estimated by comparing treated and control plants.
(§3) Sweetpotato plants cultivar 'Huachano' (accession CIP420065) were side-graft inoculated with both SPFMV (East African strain isolate Nam1) and SPCSV-Ug (East African serotype 2) as described previously ([62]). Plantlets were propagated by taking single-node stems grown in a plant culture medium ([33]). Next, plantlets with newly formed roots were transferred to glass tubes (18 by 150 mm) containing 10 ml of medium supplemented with either 50 μM compound (diluted in DMSO; final DMSO concentration, 0.1%) or only 0.1% DMSO as a control. For plant experiments in soil, plantlets were transferred to pots (6 by 6 by 10 cm) filled with a mixture of sand, humus, and washed soil. After 1 week, plants were treated by foliar spraying using either individual compounds at a single concentration (10 μM) (treatment) or water (control/mock) twice a week for 1 month. All plants were grown at 22°C with 60% humidity and a 16-h light/8-h dark photoperiod for 28 days in culture medium and for 41 days in soil. The Finnish National Plant Phenotyping Infrastructure (NaPPI) was used to monitor plant viral disease symptoms as described in our previous study ([33]). Four compounds were tested with the phenotyping platform in two independent batches, each of which included five biological replicates.
(§4) Leaf samples were collected from plants grown in culture medium or soil for 28 or 41 days, respectively, and frozen in liquid nitrogen. Total RNA was extracted using the Spectrum plant total RNA kit (Sigma-Aldrich). First-strand cDNA was synthesized using the Transcriptor first-strand cDNA synthesis kit (Roche, Basel, Switzerland). […] All RT-qPCR experiments were conducted in triplicate on three and five biological replicates from plants grown in culture medium and soil, respectively. The primer list can be found in our previous study ([33]).
as §1

SPCSV [3] = assay: Virus accumulation (RT-qPCR of coat protein RNA) in coinfected sweetpotato plants grown in culture medium: SPCSV; assay type: in vivo, Sweet potato chlorotic stunt virus; conditions: for SPCSV accumulation reduced / viral titer SPCSV (log2 fold change relative to controls): plants in culture medium, 50 μM; for SPCSV_FC (fold change of viral accumulation): 50 μM in culture medium, 28 days, relative to DMSO control
Description: as §2, §3, §4, §1

CSR3 [4] = target: T1, CSR3 (Sweet potato chlorotic stunt virus, UniProt Q8JJW8); assay: Binding affinity assay using MST; conditions: for Comments: MST behaviour of compound (V-shape response, fluorescence quenching, interference, aggregator); for Kd: MST binding affinity to CSR3; for Kd / Binding (Yes/No) / Response Amplitude: Table S4; for Binding (Yes/No): MST binding call; for Response Amplitude: MST response amplitude
T1 sequence (Q8JJW8 1-228): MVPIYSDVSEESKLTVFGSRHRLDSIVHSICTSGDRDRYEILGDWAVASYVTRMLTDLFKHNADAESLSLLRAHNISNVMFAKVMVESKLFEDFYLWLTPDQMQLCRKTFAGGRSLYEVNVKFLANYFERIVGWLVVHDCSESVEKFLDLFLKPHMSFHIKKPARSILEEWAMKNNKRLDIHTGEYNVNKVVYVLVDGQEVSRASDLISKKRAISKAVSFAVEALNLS
Description: (§5) Binding affinity assays were first carried out with the 99 commercial compounds using the MST method.
The labeled-protein solution containing 500 nM proteins and 40 nM dye was prepared in PBS buffer with 2% dimethyl sulfoxide (DMSO) for the assay. The 12 concentrations for each compound were obtained by 2-fold serial dilutions (0.2 μM to 400 μM). […] Two independent experiments were carried out in premium coated capillaries (NanoTemper, Munich, Germany) using a Monolith NT.Automated instrument (NanoTemper) with the power set at high (80%), the light-emitting diode (LED) power (pico red) set at 5%, and the on-time set at 20 s. The dissociation constant (Kd) was determined using the MO.Affinity Analysis program (NanoTemper).

sweetpotato plants = conditions: 50 μM in culture medium
[5] = tested on: human enzymes or bacterial proteins; set-up: method as in earlier work; conditions: ref PubChem https://pubchem.ncbi.nlm.nih.gov/compound/7114450#section=Biological-Test-Results; cited from earlier work
SPFMV [6] = conditions: plants in soil, 10 μM foliar spray twice a week for 1 month, vs water-treated
Description: (§6) Compounds were administered by regular foliar spray over 1 month.
as §3
(§7) Leaf samples were collected from plants grown in culture medium or soil for 28 or 41 days, respectively, and frozen in liquid nitrogen. Total RNA was extracted using the Spectrum plant total RNA kit (Sigma-Aldrich). First-strand cDNA was synthesized using the Transcriptor first-strand cDNA synthesis kit (Roche, Basel, Switzerland). Gene expression was measured in a final volume of 10 μl (containing 2 μl 10-fold-diluted cDNA, 5 μl SYBR green I master mix [Roche], and 2.5 μM primers) using the LightCycler 480 instrument II (Roche). All RT-qPCR experiments were conducted in triplicate on three and five biological replicates from plants grown in culture medium and soil, respectively. The primer list can be found in our previous study ([33]).
as §1

SPCSV [7] = conditions: plants in soil, 10 μM foliar spray twice a week for 1 month, vs water-treated
Description: as §6, §3, §7, §1

CSR3 [8] = target: T1, CSR3; assay: Binding affinity assay using SPR; conditions: SPR dose-response 3 μM to 200 μM, 25°C, numbers match M (cf. Fig 5A)
Description: as §5
CSR3 was purified as described above and stored in PBS buffer. SPR was performed on a BiacoreT100 instrument (GE Healthcare) using a sensor S CM5 chip (GE Healthcare). CSR3 (10 ng/μl) was immobilized using the standard amine-coupling method according to the manufacturer’s instructions with immobilization buffer (10 mM sodium acetate [pH 4]); the final response unit (RU) value was 11,459. Compounds at a single concentration (100 μM) or consisting of 2-fold serial dilutions (3 μM to 200 μM) were flowed over the sensor surface using PBS buffer with 0.01 M HEPES, 0.05% surfactant P20, and 2% DMSO. […] To eliminate bulk interference by DMSO, a solvent correction consisting of DMSO at concentrations ranging from 1.5% to 2.8% was carried out for every 30 samples. Steady-state affinity (KD) values were determined using BiacoreT100 Evaluation software, v.2.04 (GE Healthcare).

[9] = kinetic-based HTS, Fig 5A summary
[10] = read-out: IC50 Comm 1, repeat Comm 1 (commercial compounds), 1.25 nM to 50 μM, unit inferred, numbers match nM
[11] = repeat FIMM 2 (FIMM library compounds), 1.25 nM to 50 μM, unit inferred, numbers match nM, read-out: IC50 FIMM 2
[12] = read-out: IC50 FIMM1, repeat FIMM 1 (FIMM library compounds), 1.25 nM to 50 μM, unit inferred, numbers match nM (cf. Fig 5A)
[13] = read-out: IC50 FIMM 2, repeat FIMM 2 (FIMM library compounds), 1.25 nM to 50 μM, unit inferred, numbers match nM
[14] = repeat Comm 1 (commercial compounds), 1.25 nM to 50 μM, unit inferred, numbers match nM, read-out: IC50 Comm 1
[15] = repeat FIMM 1 (FIMM library compounds), 1.25 nM to 50 μM, unit inferred, numbers match nM (cf. Fig 5A), read-out: IC50 FIMM1

Row | SMILES | DSS Comm 1 [1] | DSS FIMM1 [1] | DSS FIMM 2 [1] | DSS [1, 9] | IC50 [1, 9] [nM] | IC50 [1, 10] [nM] | IC50 [1, 11] [nM] | SPFMV accumulation reduced (SPFMV [2]) [fold] | SPCSV accumulation reduced (SPCSV [3]) | Binding (Yes/No) (CSR3 [4]) | Response Amplitude (CSR3 [4]) | SPFMV_FC (fold change of viral accumulation) (SPFMV [2]) | SPCSV_FC (fold change of viral accumulation) (SPCSV [3]) | Toxicity (sweetpotato plants) | IC50 [1, 14] [nM] | other results
1 | CN1CCc2cccc3c2[C@H]1Cc1ccc(O)c(O)c1-3 [FIMM000096, reference compound] | 12.7 | 12.7 | 12.8 | 12.7 | ~2950 | 2950 | 2880 | ~2 | ~4 fold | Yes | 11808 | – | – | – | – | Comments (CSR3 [4]): Fluorescence quenching; Kd (CSR3 [4]): 690 nM
2 | O=C(O)c1ccc2c(c1)C1C=CCC1C(c1ccccc1)N2 (centres unmarked) [FIMM005536] | 12.4 | 12.5 | 12.1 | 12.5 | ~2740 | 2880 | – | ~4 | approximately 8 fold | No | 0 | 0.2931 | 0.1274 | no | – | IC50 [1, 12]: 2750 nM; IC50 [1, 13]: 2930 nM; viral titer SPFMV (log2 fold change relative to controls) (SPFMV [2]): −1.77; viral titer SPCSV (log2 fold change relative to controls) (SPCSV [3]): −2.97; activity in inhibitor screens for human enzymes or bacterial proteins [5]: inactive; log2 fold change in coat protein expression of SPFMV (SPFMV [6]): −1.36; log2 fold change in coat protein expression of SPCSV (SPCSV [7]): −1.67
3 | O=C(O)c1ccc2c(c1)C1C=CCC1C(c1ccc(F)cc1)N2 (centres unmarked) [FIMM051696] | 11.1 | 12.4 | 10.8 | 12.4 | ~2820 | 3610 | – | ~4 | ~4 fold | No | 0.517 | 0.3032 | 0.2923 | no | – | IC50 [1, 12]: 2820 nM; IC50 [1, 13]: 4000 nM; viral titer SPFMV (log2 fold change relative to controls) (SPFMV [2]): −1.72; viral titer SPCSV (log2 fold change relative to controls) (SPCSV [3]): −1.77; activity in inhibitor screens for human enzymes or bacterial proteins [5]: inactive; Kd (CSR3 [8]; unit inferred, read-out: Steady State Affinity): 3650 nM
4 | CN1C(=O)C(=CNc2ccc(F)cc2)C(=O)N(C)C1=O [FIMM059523] | – | 0 | 2.3 | – | – | – | 21000 | – | – | – | – | – | – | – | – | –
5 | O=S(=O)(O)c1cccc2cc(O)ccc12 [FIMM072577] | 20.7 | 18.3 | 22.1 | – | – | – | 295 | – | – | No | 0 | 1.005 | 0.7975 | no | 391 | IC50 [1, 15]: 699 nM; Comments (CSR3 [4]): Interference; Steady State Affinity (CSR3 [8]; unit not given): non binder
6 | CCn1c(S)nnc1CCNC(=O)c1cccs1 [FIMM099662] | 6 | 11.7 | 10.2 | – | – | – | 3810 | – | – | Yes | 21 | 0.9387 | 0.5483 | no | 11400 | IC50 [1, 15]: 3070 nM; Kd (CSR3 [4]; read-out: Kd): 1780 nM
7 | CC(C)(C)C1CCc2c(sc(NC(=O)C3CC=CCC3C(=O)O)c2C(N)=O)C1 (centres unmarked) [FIMM104970] | 2.4 | 0 | 2.1 | – | – | – | – | – | – | No | 2.23 | – | – | – | 3620 | –
